Experimental data published in US8778941B2, “TRPM8 antagonists and their use in treatments” (AMGEN Inc., priority 2011, dated 2014).

These compounds were tested against T1, human TRPM8 (Homo sapiens, UniProt Q7Z2W7) (assay: Luminescence readout assay for measuring intracellular calcium (aequorin), hTRPM8 antagonism). Details: CHO cell line expressing human TRPM8 and aequorin; activation by icilin, L-menthol or cold buffer (table does not say which).
T1 construct: expressed in transfected cells; host or cells: Chinese hamster ovary (CHO) cells, T-REx tetracycline-inducible expression system (Invitrogen), co-transfected with pcDNA3.1 jellyfish aequorin
T1 sequence (Q7Z2W7 whole entry): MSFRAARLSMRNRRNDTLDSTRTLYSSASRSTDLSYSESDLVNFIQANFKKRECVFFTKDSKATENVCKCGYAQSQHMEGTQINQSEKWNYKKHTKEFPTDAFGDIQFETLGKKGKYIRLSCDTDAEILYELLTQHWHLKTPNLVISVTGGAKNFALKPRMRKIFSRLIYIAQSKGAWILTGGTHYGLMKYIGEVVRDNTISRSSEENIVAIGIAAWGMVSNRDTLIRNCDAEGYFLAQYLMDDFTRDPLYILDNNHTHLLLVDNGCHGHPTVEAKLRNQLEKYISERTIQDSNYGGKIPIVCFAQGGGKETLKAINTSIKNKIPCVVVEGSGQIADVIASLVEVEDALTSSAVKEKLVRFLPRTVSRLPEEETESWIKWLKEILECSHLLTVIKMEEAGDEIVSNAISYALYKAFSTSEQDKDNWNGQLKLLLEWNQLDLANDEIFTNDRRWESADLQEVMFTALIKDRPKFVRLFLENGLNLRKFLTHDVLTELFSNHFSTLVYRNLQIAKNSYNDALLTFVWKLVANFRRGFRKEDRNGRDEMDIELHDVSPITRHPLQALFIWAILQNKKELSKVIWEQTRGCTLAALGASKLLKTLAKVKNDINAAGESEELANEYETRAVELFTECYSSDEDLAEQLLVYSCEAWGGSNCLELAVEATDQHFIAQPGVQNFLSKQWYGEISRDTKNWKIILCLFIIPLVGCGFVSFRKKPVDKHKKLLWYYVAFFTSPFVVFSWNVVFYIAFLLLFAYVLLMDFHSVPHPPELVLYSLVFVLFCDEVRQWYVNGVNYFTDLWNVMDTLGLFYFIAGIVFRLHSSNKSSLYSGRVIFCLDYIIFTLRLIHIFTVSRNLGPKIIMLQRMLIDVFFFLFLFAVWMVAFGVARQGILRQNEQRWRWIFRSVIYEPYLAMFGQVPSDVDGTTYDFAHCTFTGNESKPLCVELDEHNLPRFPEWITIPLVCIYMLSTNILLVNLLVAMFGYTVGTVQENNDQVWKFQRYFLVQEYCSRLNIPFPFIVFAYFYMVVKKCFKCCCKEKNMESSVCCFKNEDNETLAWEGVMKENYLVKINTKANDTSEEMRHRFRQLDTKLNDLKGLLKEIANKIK
Type: cell-based
Method: Luminescence Readout Assay for Measuring Intracellular Calcium.
A stable Chinese hamster ovary cell line expressing human TRPM8 was generated using tetracycline inducible T-REx™ expression system from Invitrogen, Inc. (Carlsbad, Calif.). […] Twenty four hours before the assay, cells were seeded in 96-well plates and TRPM8 expression was induced with 0.5 μg/mL tetracycline. […] Potential antagonists were added 2.5 min prior to the addition of agonist, […], 100 µM L-menthol, or 1 min prior to the addition of cold buffer (<10° C.). The luminescence was measured by a CCD camera based FLASH-luminometer built by Amgen, Inc. A cooling device attached to FLASH luminometer was used for cold activation.

First: COc1ccc([C@H](NC(=O)Nc2cccnc2)c2ncccc2C(F)(F)F)cc1 [Example 2, (S)-1-((4-methoxy-phenyl)(3-(trifluoro-methyl)-pyridin-2-yl)-methyl)-3-(pyridin-3-yl)-urea]
Second: COc1cccc([C@H](NC(=O)Nc2cccnc2)c2ncccc2C(F)(F)F)c1 [Example 4, (S)-1-((3-methoxy-phenyl)(3-(trifluoro-methyl)-pyridin-2-yl)-methyl)-3-(pyridin-3-yl)-urea]
The IC50 of the first is 5.3-fold lower: 230 nM for the first, 1230 nM for the second. The first is the more potent here.

Going from `CC[C@H](C)C(NC(=O)N[C@@H](c1ccc(C(F)(F)F)cc1)c1ncccc1C(F)(F)F)C(=O)OC` (stereo partly drawn) [Example 99, (3S)-methyl 3-methyl-2-(3-((S)-(4-(trifluoro-methyl)-phenyl)(3-(trifluoro-methyl)-pyridin-2-yl)-methyl)-ureido)-pentanoate (2,2,2-trifluoro-acetate)] to `COC(=O)[C@H](CCSC)NC(=O)N[C@@H](c1ccc(C(F)(F)F)cc1)c1ncccc1C(F)(F)F` [Example 78, (S)-methyl 4-(methylthio)-2-(3-((S)-(4-(trifluoro-methyl)-phenyl)(3-(trifluoro-methyl)-pyridin-2-yl)-methyl)-ureido)-butanoate (2,2,2-trifluoro-acetate)], the IC50 rises from 712 nM to 1230 nM (1.7-fold).

Going from `O=C(Nc1cccnc1)N[C@@H](c1ccc2ccccc2c1)c1ncccc1C(F)(F)F` [Example 11] to `O=C(Nc1cccnc1)NC(c1ccc(F)c(C(F)(F)F)c1)c1ncccc1F` (stereo not drawn) [Example 22, 1-((4-fluoro-3-(trifluoro-methyl)-phenyl)(3-fluoropyridin-2-yl)methyl)-3-(pyridin-3-yl)urea (2,2,2-trifluoro-acetate)], the IC50 rises from 101 nM to 201 nM (2-fold).

First: CC(C)(C)c1ccccc1NC(=O)N[C@@H](c1ccc(C(F)(F)F)cc1)c1ncccc1C(F)(F)F [Example 71, (S)-1-(tert-butylphenyl)-3-((4-(trifluoro-methyl)-phenyl)(3-(trifluoro-methyl)-pyridin-2-yl)-methyl)urea (2,2,2-trifluoro-acetate)]
Second: CCc1cccc(C)c1NC(=O)N[C@@H](c1ccc(C(F)(F)F)cc1)c1ncccc1C(F)(F)F [Example 89, (S)-1-(2-ethyl-6-methylphenyl)-3-((4-(trifluoro-methyl)-phenyl)(3-(trifluoro-methyl)-pyridin-2-yl)-methyl)urea (2,2,2-trifluoro-acetate)]
The IC50 of the first is 17-fold higher: 5710 nM for the first, 330 nM for the second.

First: O=C(Nc1cccnc1)NC(c1ccc(C(F)(F)F)nc1)c1ncccc1C(F)(F)F (stereo not drawn) [Example 25, 1-(pyridin-3-yl)-3-((3-(trifluoro-methyl)-pyridin-2-yl)-(6-(trifluoro-methyl)-pyridin-3-yl)-methyl)urea (2,2,2-trifluoro-acetate)]
Second: COc1cccc(NC(=O)N[C@@H](c2ccc(C(F)(F)F)cc2)c2ncccc2C(F)(F)F)c1 [Example 52, (S)-1-(3-methoxy-phenyl)-3-((4-(trifluoro-methyl)-phenyl)(3-(trifluoro-methyl)-pyridin-2-yl)-methyl)urea (2,2,2-trifluoro-acetate)]
The IC50 of the first is 3.5-fold higher: 216 nM for the first, 61 nM for the second.

`O=C(Nc1cc[nH]c(=O)c1)N[C@@H](c1ccc(C(F)(F)F)cc1)c1ncccc1F` [Example 164, (S)-1-((3-fluoropyridin-2-yl)(4-(trifluoro-methyl)-phenyl)-methyl)-3-(2-oxo-1,2-dihydropyridin-4-yl)urea] and `O=C(Nc1ccc(=O)[nH]c1)N[C@@H](c1ccc(C(F)(F)F)cc1)c1ncccc1F` [Example 165, (S)-1-((3-fluoropyridin-2-yl)(4-(trifluoro-methyl)-phenyl)-methyl)-3-(6-oxo-1,6-dihydropyridin-3-yl)urea] are within 1.5-fold of each other in IC50: 2880 nM for the first, 3210 nM for the second.

`Cc1nc(-c2cccc(NC(=O)N[C@@H](c3ccc(C(F)(F)F)cc3)c3ncccc3C(F)(F)F)c2)no1` [Example 77, (S)-1-(3-(5-methyl-1,2,4-oxadiazol-3-yl)phenyl)-3-((4-(trifluoro-methyl)-phenyl)(3-(trifluoro-methyl)-pyridin-2-yl)-methyl)urea (2,2,2-trifluoro-acetate)] and `COC(=O)c1cccc(NC(=O)N[C@@H](c2ccc(C(F)(F)F)cc2)c2ncccc2C(F)(F)F)c1` [Example 102, (S)-methyl 3-(3-((4-(trifluoro-methyl)-phenyl)(3-(trifluoro-methyl)-pyridin-2-yl)-methyl)-ureido)-benzoate (2,2,2-trifluoro-acetate)] are within 1.5-fold of each other in IC50: 235 nM for the first, 262 nM for the second.

`CC(C)(C)OC(=O)N[C@@H](c1ccc(C(F)(F)F)cc1)c1ccccn1` [Example 169, (S)-tert-Butyl(pyridin-2-yl(4-(trifluoromethyl)phenyl)methyl)-carbamate 2,2,2-trifluoroacetate] and `CC(C)(C)OC(=O)N[C@@H](c1ccc(OC(F)(F)F)c(F)c1)c1ncccc1F` [Example 174, (S)-tert-Butyl((3-fluoro-4-(trifluoromethoxy)phenyl)(3-fluoropyridin-2-yl)methyl)carbamate] are within 1.5-fold of each other in IC50: 663 nM for the first, 474 nM for the second.

Compared with `O=C(Nc1cccnc1)N[C@@H](c1ccc(C(F)(F)F)cc1)c1ccccc1Br` [Example 115, (S)-1-((2-bromophenyl) (4-(trifluoro-methyl)-phenyl)-methyl)-3-(pyridin-3-yl)-urea 2,2,2-trifluoro-acetate (2,2,2-trifluoro-acetate)], `O=C(Nc1cccnc1)N[C@@H](c1ccc(OC(F)(F)F)cc1)c1ncccc1F` [Example 15, (S)-1-((3-fluoropyridin-2-yl)(4-(trifluoro-methoxy)-phenyl)-methyl)-3-(pyridin-3-yl)-urea] is 10-fold lower in IC50: 154 nM for the first, 15 nM for the second. The second is the more potent here.

`O=C(Nc1ccc[nH]c1=O)N[C@@H](c1ccc(C(F)(F)F)cc1)c1ncccc1F` [Example 163, (S)-1-((3-fluoropyridin-2-yl)(4-(trifluoro-methyl)-phenyl)-methyl)-3-(2-oxo-1,2-dihydropyridin-3-yl)urea] and `CCc1cccc(CC)c1NC(=O)N[C@@H](c1ccc(C(F)(F)F)cc1)c1ncccc1C(F)(F)F` [Example 88, (S)-1-(2,6-diethylphenyl)-3-((4-(trifluoro-methyl)-phenyl)(3-(trifluoro-methyl)-pyridin-2-yl)-methyl)urea (2,2,2-trifluoro-acetate)] are within 1.5-fold of each other in IC50: 76 nM for the first, 108 nM for the second.

Compared with `CCCC[C@H](C)NC(=O)N[C@@H](c1ccc(C(F)(F)F)cc1)c1ncccc1C(F)(F)F` [Example 83, 1-((S)-hexan-2-yl)-3-((S)-(4-(trifluoro-methyl)-phenyl)(3-(trifluoro-methyl)-pyridin-2-yl)-methyl)urea (2,2,2-trifluoro-acetate)], `Cc1ccc(NC(=O)N[C@@H](c2ccc(C(F)(F)F)cc2)c2ncccc2C(F)(F)F)cc1[N+](=O)[O-]` [Example 140, (S)-1-(4-methyl-3-nitrophenyl)-3-((4-(trifluoro-methyl)-phenyl)(3-(trifluoro-methyl)-pyridin-2-yl)-methyl)urea (2,2,2-trifluoro-acetate)] is 11-fold higher in IC50: 115 nM for the first, 1300 nM for the second.

First: O=C(NCCc1ccc2c(c1)OCO2)N[C@@H](c1ccc(C(F)(F)F)cc1)c1ncccc1C(F)(F)F [Example 36, (S)-1-(2-(benzo[d][1,3]dioxol-5-yl)-ethyl)-3-((4-(trifluoro-methyl)-phenyl)(3-(trifluoro-methyl)-pyridin-2-yl)-methyl)urea (2,2,2-trifluoro-acetate)]
Second: CC(C)OC(=O)N[C@@H](c1ccc(OC(F)(F)F)c(F)c1)c1ncccc1F [Example 175, (S)-isopropyl ((3-fluoro-4-(trifluoromethoxy)phenyl)(3-fluoropyridin-2-yl)methyl)carbamate]
The IC50 of the first is 5.7-fold higher: 390 nM for the first, 68 nM for the second.
